According to US5482954A, “Signal transduction inhibitor triazole and diazole compounds” (priority 1994, dated 1996):

How the values were obtained:
5R cells = test: Clonogenic (crystal violet) proliferation assay; format: cell-based, rat; conditions: 0-10 μg/mL, 96 hr
Experimental: Proliferation: Two independent methods were used to determine the effect of various compounds on cellular proliferation. The first method utilized [^3 H]thymidine labelling and was performed using A2058, 5R, OVCAR3, and MDA-231 cells. Because the potential effect of compound 1 on thymidine metabolism was unknown, a clonogenic assay was also used. This assay utilized crystal violet nuclear staining.
For the clonogenic assay, aliquots of 50,000 cells per well (24 well plates) were grown under standard tissue culture conditions in the presence of increasing doses or test compound (0-10 μg/mL) or vehicle control. After 96 hr, the cells were gently washed with PBS, fixed, and stained with 0.5% crystal violet nuclear stain in 20% methanol. Excess stain was removed with tap water and bound stain was eluted with an equal volume solution of 01N sodium citrate (pH 4.2) and absolute ethanol. Optical density (O.D.) of eluted crystal violet stain was determined at 540 nm. The results of dose-dependent inhibition of tumor cell proliferation by compound 1 are shown in FIG. 5, in which the data are expressed as percent of untreated control cell proliferation for each cell type. The degree of inhibition varied with the cell type and was maximal (76%) for the A2058 cell line.

A2058 cells = test: AMF-stimulated phosphatidyl inositol metabolism; format: cell-based, human
Experimental: This example illustrates the effect of compound 1 on the generation and release of phosphatidyl inositol from either A2058 cells (stimulated with autocrine motility factor) or CHOm5 cells (stimulated with carbachol).
A2058 cells were incubated with compound 1 (1.0 μg/mL) for 24 hr, then labelled overnight with [^3 H]inositol in serum-free, low inositol IMEM (LI-IMEM). Cells were then harvested, suspended, and incubated in LI-IMEM containing 10 mM LiCl for 30 min. The metabolism assay was initiated by the addition of either AMF or serum-free medium control to aliquots of 100,000 cells. The aliquots were incubated at 37° C. for 15 and 120 min, then washed twice with ice-cold PBS and extracted with chloroform:methanol (1:2). The total inositol phosphates were removed using Dowex anion exchange column chromatography eluted with ammonium formate 1.0 M/formic acid 0.1 M buffer. Total inositol phosphates and unincorporated total intracellular [^3 H]inositol were quantitated by […]. Data are expressed as a ratio of total inositol phosphates to total unincorporated [^3 H]inositol.

solid tumor metastasis = test: Phase I clinical study, tumor response; format: in vivo, human
Source text: This example illustrates the effect of compound 1 on tumor growth and metastasis when administered orally to seven patients in an FDA approved phase I clinical study.
Seven patients with solid tumor metastasis are undergoing treatment via oral administration of compound 1 under the FDA approved phase I clinical study. Table J provides data on the patients' response to this treatment. PT# is patient number. Response is the sum of the products of bidirectional measurements. No measurement means that while the disease was evaluable, it was not measureable. The concentration of the drug in the blood of the patients is well within the range which inhibits signal transduction in vitro and which inhibits tumor growth in vitro and in animals.

[1] = patient 1, melanoma, 100 mg/m^2 qod
[2] = patient 2, colon, 100 mg/m^2 qd
[3] = patient 4, ovary, 100 mg/m^2 qd

NC(=O)c1nnn(Cc2cc(Cl)c(C(=O)c3ccc(Cl)cc3)c(Cl)c2)c1N [Compound 1]
inhibition of tumor cell proliferation (5R cells): dose dependent inhibition of tumor cell proliferation | inhibition of AMF-stimulated phosphatidyl inositol hydrolysis (A2058 cells; 1.0 μg/mL, 24 hr): significantly inhibited | inhibition at 1 µg/mL (A2058 cells; Homo sapiens, A2058, 1.0 μg/mL, 24 hr, read-out: inhibition of AMF-stimulated phosphatidyl inositol hydrolysis): ~45% | effect on unstimulated cells (inositol phosphates) (A2058 cells; treated, unstimulated cells): no appreciable effect | RESPONSE (solid tumor metastasis; [1]): Stable | RESPONSE (sum of products of bidirectional measurements) (solid tumor metastasis; [1]): +8% | inhibition of growth rate (cm^2 /day) (solid tumor metastasis; patient 1, metastasis lesion #1, X-ray): 79% | inhibition of growth rate (cm^2 /day) (solid tumor metastasis; patient 1, metastasis lesion #2, X-ray): 59% | suppression and regression of colon cancer metastases (solid tumor metastasis; patient 2): suppression and regression of 3 of 3 colon cancer metastases | RESPONSE (solid tumor metastasis; [2]): Stable | RESPONSE (sum of products of bidirectional measurements) (solid tumor metastasis; [2]): -22% | RESPONSE (solid tumor metastasis; patient 3, colon, 100 mg/m^2 qd): Stable | RESPONSE (solid tumor metastasis; [3]): Stable | RESPONSE (sum of products of bidirectional measurements) (solid tumor metastasis; [3]): -21% | RESPONSE (solid tumor metastasis; patient 5, lung, 200 mg/m^2 qod): Stable | RESPONSE (solid tumor metastasis; patient 6, carcinoid, 200 mg/m^2 qod): Stable | RESPONSE (solid tumor metastasis; patient 7, colon, 200 mg/m^2 qod): Progres-
